Experimental data: patent US12215140B2, “Method of stabilizing protein contained in specimen and solution for stabilizing protein contained in specimen” (EIKEN KAGAKU KABUSHIKI KAISHA, priority 2018, dated 2025)

System: hemoglobin-haptoglobin complex
Test: Stability of hemoglobin (as hemoglobin-haptoglobin complex) in samples preserved at 37° C. in preservation solution containing 1 unit/L haptoglobin, Hb measured by latex agglutination method (Examples 1 to 7)
Set-up: species or system human
Conditions: for Hb concentration / Recovery ratio with respect to Hb concentration after 0 days: 37° C.
Summary of the method: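 Latex agglutination (anti-human hemoglobin rabbit polyclonal latex) measured Hb in samples stored at 37 °C up to 21 days; values expressed as % recovery versus day 0. Preservation solution: HEPES 40 mmol/L pH 6.8, BSA 0.1%, NaN3 0.1%, haptoglobin 1 unit/L, phenylboronic acid 0–100 mmol/L, optional sugars; ~300 µg/L Hb, 0.5% feces or none.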

[1] = Feces 1, sugar 50 mmol/L + phenylboronic acid 15 mmol/L, 0 days
[2] = Feces 1, sugar 50 mmol/L + phenylboronic acid 15 mmol/L, 7 days
[3] = Feces 1, sugar 50 mmol/L + phenylboronic acid 15 mmol/L, 14 days
[4] = Feces 1, sugar 50 mmol/L + phenylboronic acid 15 mmol/L, 21 days
[5] = Feces 1, sugar 100 mmol/L + phenylboronic acid 15 mmol/L, 0 days
[6] = Feces 1, sugar 100 mmol/L + phenylboronic acid 15 mmol/L, 7 days
[7] = Feces 1, sugar 100 mmol/L + phenylboronic acid 15 mmol/L, 14 days
[8] = Feces 1, sugar 100 mmol/L + phenylboronic acid 15 mmol/L, 21 days
[9] = Feces 1, sugar 100 mmol/L, no phenylboronic acid, 0 days
[10] = Feces 1, sugar 100 mmol/L, no phenylboronic acid, 7 days
[11] = Feces 1, sugar 100 mmol/L, no phenylboronic acid, 14 days
[12] = Feces 1, sugar 100 mmol/L, no phenylboronic acid, 21 days
[13] = Feces 2, sugar 50 mmol/L + phenylboronic acid 15 mmol/L, 0 days
[14] = Feces 2, sugar 50 mmol/L + phenylboronic acid 15 mmol/L, 7 days
[15] = Feces 2, sugar 50 mmol/L + phenylboronic acid 15 mmol/L, 14 days
[16] = Feces 2, sugar 50 mmol/L + phenylboronic acid 15 mmol/L, 21 days
[17] = Feces 2, sugar 100 mmol/L + phenylboronic acid 15 mmol/L, 0 days
[18] = Feces 2, sugar 100 mmol/L + phenylboronic acid 15 mmol/L, 7 days
[19] = Feces 2, sugar 100 mmol/L + phenylboronic acid 15 mmol/L, 14 days
[20] = Feces 2, sugar 100 mmol/L + phenylboronic acid 15 mmol/L, 21 days
[21] = Feces 2, sugar 100 mmol/L, no phenylboronic acid, 0 days
[22] = Feces 2, sugar 100 mmol/L, no phenylboronic acid, 7 days
[23] = Feces 2, sugar 100 mmol/L, no phenylboronic acid, 14 days
[24] = Feces 2, sugar 100 mmol/L, no phenylboronic acid, 21 days
[25] = Feces 3, sugar 50 mmol/L + phenylboronic acid 15 mmol/L, 0 days
[26] = Feces 3, sugar 50 mmol/L + phenylboronic acid 15 mmol/L, 7 days
[27] = Feces 3, sugar 50 mmol/L + phenylboronic acid 15 mmol/L, 14 days
[28] = Feces 3, sugar 50 mmol/L + phenylboronic acid 15 mmol/L, 21 days
[29] = Feces 3, sugar 100 mmol/L + phenylboronic acid 15 mmol/L, 0 days
[30] = Feces 3, sugar 100 mmol/L + phenylboronic acid 15 mmol/L, 7 days
[31] = Feces 3, sugar 100 mmol/L + phenylboronic acid 15 mmol/L, 14 days
[32] = Feces 3, sugar 100 mmol/L + phenylboronic acid 15 mmol/L, 21 days
[33] = Feces 3, sugar 100 mmol/L, no phenylboronic acid, 0 days
[34] = Feces 3, sugar 100 mmol/L, no phenylboronic acid, 7 days
[35] = Feces 3, sugar 100 mmol/L, no phenylboronic acid, 14 days
[36] = Feces 3, sugar 100 mmol/L, no phenylboronic acid, 21 days
[37] = No feces, sugar 50 mmol/L + phenylboronic acid 15 mmol/L, 0 days
[38] = No feces, sugar 50 mmol/L + phenylboronic acid 15 mmol/L, 7 days
[39] = No feces, sugar 50 mmol/L + phenylboronic acid 15 mmol/L, 14 days
[40] = No feces, sugar 50 mmol/L + phenylboronic acid 15 mmol/L, 21 days
[41] = No feces, sugar 100 mmol/L + phenylboronic acid 15 mmol/L, 7 days
[42] = No feces, sugar 100 mmol/L + phenylboronic acid 15 mmol/L, 14 days
[43] = No feces, sugar 100 mmol/L + phenylboronic acid 15 mmol/L, 21 days
[44] = No feces, sugar 100 mmol/L, no phenylboronic acid, 0 days
[45] = No feces, sugar 100 mmol/L, no phenylboronic acid, 7 days
[46] = No feces, sugar 100 mmol/L, no phenylboronic acid, 14 days
[47] = No feces, sugar 100 mmol/L, no phenylboronic acid, 21 days

O=C(CO)[C@@H](O)[C@H](O)[C@H](O)CO [Fructose, fructose]
Hb concentration [1]: 297 µg/L
Recovery ratio with respect to Hb concentration after 0 days [1]: 100%
Hb concentration [2]: 294 µg/L
Recovery ratio with respect to Hb concentration after 0 days [2]: 99%
Hb concentration [3]: 285 µg/L
Recovery ratio with respect to Hb concentration after 0 days [3]: 96%
Hb concentration [4]: 280 µg/L
Recovery ratio with respect to Hb concentration after 0 days [4]: 94%
Hb concentration [5]: 287 µg/L
Recovery ratio with respect to Hb concentration after 0 days [5]: 100%
Hb concentration [6]: 276 µg/L
Recovery ratio with respect to Hb concentration after 0 days [6]: 96%
Hb concentration [7]: 247 µg/L
Recovery ratio with respect to Hb concentration after 0 days [7]: 86%
Hb concentration [8]: 228 µg/L
Recovery ratio with respect to Hb concentration after 0 days [8]: 79%
Hb concentration [9]: 285 µg/L
Recovery ratio with respect to Hb concentration after 0 days [9]: 100%
Hb concentration [10]: 127 µg/L
Recovery ratio with respect to Hb concentration after 0 days [10]: 45%
Hb concentration [11]: 85 µg/L
Recovery ratio with respect to Hb concentration after 0 days [11]: 30%
Hb concentration [12]: 81 µg/L
Recovery ratio with respect to Hb concentration after 0 days [12]: 28%
Hb concentration [13]: 270 µg/L
Recovery ratio with respect to Hb concentration after 0 days [13]: 100%
Hb concentration [14]: 275 µg/L
Recovery ratio with respect to Hb concentration after 0 days [14]: 102%
Hb concentration [15]: 243 µg/L
Recovery ratio with respect to Hb concentration after 0 days [15]: 90%
Hb concentration [16]: 222 µg/L
Recovery ratio with respect to Hb concentration after 0 days [16]: 82%
Hb concentration [17]: 280 µg/L
Recovery ratio with respect to Hb concentration after 0 days [17]: 100%
Hb concentration [18]: 264 µg/L
Recovery ratio with respect to Hb concentration after 0 days [18]: 94%
Hb concentration [19]: 235 µg/L
Recovery ratio with respect to Hb concentration after 0 days [19]: 84%
Hb concentration [20]: 212 µg/L
Recovery ratio with respect to Hb concentration after 0 days [20]: 76%
Hb concentration [21]: 273 µg/L
Recovery ratio with respect to Hb concentration after 0 days [21]: 100%
Hb concentration [22]: 100 µg/L
Recovery ratio with respect to Hb concentration after 0 days [22]: 37%
Hb concentration [23]: 56 µg/L
Recovery ratio with respect to Hb concentration after 0 days [23]: 21%
Hb concentration [24]: 35 µg/L
Recovery ratio with respect to Hb concentration after 0 days [24]: 13%
Hb concentration [25]: 272 µg/L
Recovery ratio with respect to Hb concentration after 0 days [25]: 100%
Hb concentration [26]: 238 µg/L
Recovery ratio with respect to Hb concentration after 0 days [26]: 88%
Hb concentration [27]: 218 µg/L
Recovery ratio with respect to Hb concentration after 0 days [27]: 80%
Hb concentration [28]: 203 µg/L
Recovery ratio with respect to Hb concentration after 0 days [28]: 75%
Hb concentration [29]: 276 µg/L
Recovery ratio with respect to Hb concentration after 0 days [29]: 100%
Hb concentration [30]: 244 µg/L
Recovery ratio with respect to Hb concentration after 0 days [30]: 88%
Hb concentration [31]: 222 µg/L
Recovery ratio with respect to Hb concentration after 0 days [31]: 80%
Hb concentration [32]: 204 µg/L
Recovery ratio with respect to Hb concentration after 0 days [32]: 74%
Hb concentration [33]: 265 µg/L
Recovery ratio with respect to Hb concentration after 0 days [33]: 100%
Hb concentration [34]: 83 µg/L
Recovery ratio with respect to Hb concentration after 0 days [34]: 31%
Hb concentration [35]: 41 µg/L
Recovery ratio with respect to Hb concentration after 0 days [35]: 15%
Hb concentration [36]: 39 µg/L
Recovery ratio with respect to Hb concentration after 0 days [36]: 15%
Hb concentration [37]: 286 µg/L
Recovery ratio with respect to Hb concentration after 0 days [37]: 100%
Hb concentration [38]: 255 µg/L
Recovery ratio with respect to Hb concentration after 0 days [38]: 89%
Hb concentration [39]: 261 µg/L
Recovery ratio with respect to Hb concentration after 0 days [39]: 91%
Hb concentration [40]: 275 µg/L
Recovery ratio with respect to Hb concentration after 0 days [40]: 96%
Recovery ratio with respect to Hb concentration after 0 days (No feces, sugar 100 mmol/L + phenylboronic acid 15 mmol/L, 0 days): 100%
Hb concentration [41]: 245 µg/L
Recovery ratio with respect to Hb concentration after 0 days [41]: 87%
Hb concentration [42]: 251 µg/L
Recovery ratio with respect to Hb concentration after 0 days [42]: 89%
Hb concentration [43]: 262 µg/L
Recovery ratio with respect to Hb concentration after 0 days [43]: 93%
Hb concentration [44]: 250 µg/L
Recovery ratio with respect to Hb concentration after 0 days [44]: 100%
Hb concentration [45]: 215 µg/L
Recovery ratio with respect to Hb concentration after 0 days [45]: 86%
Hb concentration [46]: 196 µg/L
Recovery ratio with respect to Hb concentration after 0 days [46]: 78%
Hb concentration [47]: 177 µg/L
Recovery ratio with respect to Hb concentration after 0 days [47]: 71%
recovery ratio of hemoglobin in the samples containing fecal specimens (sugar 100 mmol/L, preservation solutions containing no phenylboronic acid): does not improve
recovery ratio of hemoglobin in the sample (sugar 50 or 100 mmol/L further added to phenylboronic acid 15 mmol/L, Feces 1, Feces 2, Feces 3): further improved
